In general, Kd refers to a measure of binding affinity in units of concentration. High values mean weaker binding, low ones tighter binding.

Each structure is given as a SMILES string. Where a name gives a salt, the structure may show the parent alone.

Kd data for 6 compounds are collected here from BindingDB's records for doi:10.1021/jm00168a011 (Merrell Dow Research Institute, 1990).

The assay has as its target T1, 5-hydroxytryptamine receptor 3A/3B (Mus musculus, UniProt P23979+Q9JHJ5).
T1 sequence (P23979 whole entry): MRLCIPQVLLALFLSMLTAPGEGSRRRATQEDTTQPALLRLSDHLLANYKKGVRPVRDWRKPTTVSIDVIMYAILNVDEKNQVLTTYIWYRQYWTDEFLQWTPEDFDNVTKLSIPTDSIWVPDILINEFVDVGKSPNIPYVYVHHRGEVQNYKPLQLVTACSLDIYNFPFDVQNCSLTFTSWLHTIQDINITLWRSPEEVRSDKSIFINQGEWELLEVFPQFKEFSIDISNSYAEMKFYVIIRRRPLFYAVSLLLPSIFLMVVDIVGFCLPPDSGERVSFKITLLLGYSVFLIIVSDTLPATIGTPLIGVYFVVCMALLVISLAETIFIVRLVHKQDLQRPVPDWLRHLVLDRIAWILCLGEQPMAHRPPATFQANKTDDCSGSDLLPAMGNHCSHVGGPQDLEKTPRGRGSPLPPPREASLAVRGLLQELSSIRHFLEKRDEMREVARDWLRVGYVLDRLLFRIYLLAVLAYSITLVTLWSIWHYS
T1 sequence (Q9JHJ5 whole entry): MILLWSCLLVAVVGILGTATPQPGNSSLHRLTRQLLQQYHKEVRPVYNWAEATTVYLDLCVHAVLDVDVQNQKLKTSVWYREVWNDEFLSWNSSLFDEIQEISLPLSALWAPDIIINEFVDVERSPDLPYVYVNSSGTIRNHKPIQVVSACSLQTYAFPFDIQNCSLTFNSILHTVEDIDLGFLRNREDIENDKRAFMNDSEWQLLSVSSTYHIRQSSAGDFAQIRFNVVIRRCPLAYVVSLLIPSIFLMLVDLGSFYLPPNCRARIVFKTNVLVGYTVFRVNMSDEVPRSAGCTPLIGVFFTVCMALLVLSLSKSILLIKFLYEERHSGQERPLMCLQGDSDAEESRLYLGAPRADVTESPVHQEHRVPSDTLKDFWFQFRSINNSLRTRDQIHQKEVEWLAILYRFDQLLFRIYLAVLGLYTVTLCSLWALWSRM
The experiment in a line: Binding affinity towards 5-hydroxytryptamine 3 receptor was determined by using [3H]-ICS 205-930 as radioligand in mouse N1E 115 cells.
`c1ccc2nc(N3CCNCC3)ccc2c1` [2-Piperazin-1-yl-quinoline (Quipazine)] yielded a Kd of 2 nM.

`CCN(CC)CCNC(=O)c1cc(Cl)c(N)cc1OC` [4-amino-5-chloro-N-[2-(diethylamino)ethyl]-2-methoxy-benzamide;hydrochloride] had a dissociation constant (Kd) of 224 nM.

With `CN1[C@@H]2CC[C@H]1C[C@@H](OC(=O)c1c[nH]c3ccccc13)C2` [(3-ENDO)-8-METHYL-8-AZABICYCLO[3.2.1]OCT-3-YL 1H-INDOLE-3-CARBOXYLATE], the Kd was 0.813 nM.

On to `O=C(OC1CC2CCC(C1)N2)c1c[nH]c2ccccc12` (stereo unspecified) [NORTROPISETRON], for which the Kd is 0.724 nM.

On to `Cc1nccn1CC1CCc2c(c3ccccc3n2C)C1=O` (stereo unspecified) [NSC_68647], for which the Kd was 13 nM.

`CN1[C@@H]2CC[C@H]1C[C@@H](OC(=O)c1cc(Cl)cc(Cl)c1)C2` [TROPANYL 3,5-DICHLOROBENZOATE] had a Kd of 6.2 nM.
